Experimental data from US10214531B2 (Institute for Drug Discovery, LLC, priority 2013, dated 2019).
Where a name gives a salt, the structure may show the parent alone.

Biological target: recombinant human AMCase (Homo sapiens, UniProt Q9BZP6)
Experiment: Human AMCase Activity Assay
Assay type: biochemical
Conditions: recombinant hAMCase, 4-methylumbelliferyl chitobioside substrate, citrate buffer pH 5.2, 37° C., 60 minutes; read-out: Activity (IC50 value key)
Protocol: Human AMCase Activity Assay
The assay was run in the 96-well plate format, each reaction in the total volume of 100 μl. 4-Methylumbelliferyl B-D-N,N′ diacetylchitobioside hydrate was used as a substrate for the enzyme. Upon hydrolysis by AMCase, the substrate releases 4-methylumbelliferyl (4MU), when ionized in basic pH, emits fluorescence of 460 nm.
Briefly, 40 μl of a substrate was added to each well, followed by 10 μl of compound dilution and 50 μl of hAMCase recombinant enzyme solution. The reaction was carried out in citrate buffer, pH 5.2, in the dark, at 37° C. for 60 minutes with shaking.

Chain of recombinant human AMCase (Q9BZP6 22-476): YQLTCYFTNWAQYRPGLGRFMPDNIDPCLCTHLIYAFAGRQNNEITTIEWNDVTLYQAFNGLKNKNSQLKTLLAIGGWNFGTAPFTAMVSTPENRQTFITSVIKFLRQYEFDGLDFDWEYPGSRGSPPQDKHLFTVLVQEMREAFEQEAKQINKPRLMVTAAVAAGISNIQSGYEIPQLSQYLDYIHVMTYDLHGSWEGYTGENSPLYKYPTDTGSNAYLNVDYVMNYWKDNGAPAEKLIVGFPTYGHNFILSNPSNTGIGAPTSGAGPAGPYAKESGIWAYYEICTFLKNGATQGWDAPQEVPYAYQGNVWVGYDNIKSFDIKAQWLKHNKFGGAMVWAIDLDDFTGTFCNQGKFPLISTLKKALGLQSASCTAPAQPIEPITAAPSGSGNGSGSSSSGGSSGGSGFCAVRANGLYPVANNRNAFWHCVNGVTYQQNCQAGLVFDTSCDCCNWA

Compound | IC50
COc1ccc(OC)c(CCN(C)C2CCN(c3nc(N)n[nH]3)CC2)c1 [Example 182, 1-(3-amino-1H-1,2,4-triazol-5-yl)-N-(2,5-dimethoxyphenethyl)-N-methylpiperidin-4-amine] | 10 to 100 µM
Nc1n[nH]c(N2CCC(C(=O)NCc3cccc4ccccc34)CC2)n1 [Example 195, 1-(3-amino-1H-1,2,4-triazol-5-yl)-N-(naphthalen-1-ylmethyl)piperidine-4-carboxamide] | > 100 µM
CCN(C1CCN(c2nc(N)n[nH]2)CC1)S(=O)(=O)Cc1cccc(Cl)c1 [Example 238, N-(1-(3-amino-1H-1,2,4-triazol-5-yl)piperidin-4-yl)-1-(3-chlorophenyl)-N-ethylmethanesulfonamide] | 0.1 to 1 µM
CC(=O)OCCCC1CN(c2nc(N)n[nH]2)CCN1CCCc1ccc(Br)cc1 (stereo not drawn) [Example 224, 3-(4-(3-amino-1H-1,2,4-triazol-5-yl)-1-(3-(4-bromophenyl)propyl)piperazin-2-yl)propylacetate] | 0.1 to 1 µM
CC(CCc1ccc(Br)cc1)N1CCN(c2nc(N)n[nH]2)CC1 (stereo not drawn) [Example 19, 5-(4-(4-(4-bromophenyl)butan-2-yl)piperazin-1-yl)-1H-1,2,4-triazol-3-amine] | 10 to 100 µM
COc1ccc(CCN(C)C2CCN(c3nc(N)n[nH]3)CC2)cc1OC [Example 173, 1-(3-amino-1H-1,2,4-triazol-5-yl)-N-(3,4-dimethoxyphenethyl)-N-methylpiperidin-4-amine] | 10 to 100 µM
Nc1n[nH]c(N2CCC(NS(=O)(=O)Cc3cccc(F)c3)CC2)n1 [Example 56, N-(1-(3-amino-1H-1,2,4-triazol-5-yl)piperidin-4-yl)-1-(3-fluorophenyl)methanesulfonamide] | 10 to 100 µM
Nc1n[nH]c(N2CCN(C(=O)C(O)Cc3ccccc3Cl)CC2)n1 (stereo not drawn) [Example 73, 1-(4-(3-amino-1H-1,2,4-triazol-5-yl)piperazin-1-yl)-3-(2-chlorophenyl)-2-hydroxypropan-1-one] | > 100 µM
CN(CCc1ccc(Cl)cc1)C1CCN(c2nc(N)n[nH]2)CC1F (stereo not drawn) [Example 150, 1-(3-amino-1H-1,2,4-triazol-5-yl)-N-(4-chlorophenethyl)-3-fluoro-N-methylpiperidin-4-amine] | 1 to 10 µM
Nc1n[nH]c(N2CCC(N(CCc3ccc(Br)cc3)Cc3cccc4ccncc34)CC2)n1 [Example 105, 1-(3-amino-1H-1,2,4-triazol-5-yl)-N-(4-bromophenethyl)-N-(isoquinolin-8-ylmethyl) piperidin-4-amine] | < 0.1 µM
Nc1n[nH]c(N2CCC(C(=O)NCc3ccc(F)c(C(F)(F)F)c3)CC2)n1 [Example 54, 1-(3-amino-1H-1,2,4-triazol-5-yl)-N-(4-fluoro-3-(trifluoromethyl)benzyl)piperidine-4-carboxamide] | > 100 µM
Cc1cccc(Cl)c1OCCN1CCN(c2nc(N)n[nH]2)CC1 [Example 87, 5-(4-(2-(2-chloro-6-methylphenoxy)ethyl)piperazin-1-yl)-1H-1,2,4-triazol-3-amine] | 10 to 100 µM
CN(CCc1ccc(Cl)cc1)C1(CCO)CCN(c2nc(N)n[nH]2)CC1 [Example 228, 2-(1-(3-amino-1H-1,2,4-triazol-5-yl)-4-((4-chlorophenethyl)(methyl)amino)piperidin-4-yl)ethanol] | 0.1 to 1 µM
C[C@@H](Oc1ccc(Br)cc1)C(=O)N1CCN(c2nc(N)n[nH]2)CC1 [Example 6, (R)-1-(4-(3-amino-1H-1,2,4-triazol-5-yl)piperazin-1-yl)-2-(4-bromophenoxy)propan-1-one] | > 100 µM
Nc1n[nH]c(N2CCC(C(=O)NCc3ccc(F)c(F)c3)CC2)n1 [Example 199, 1-(3-amino-1H-1,2,4-triazol-5-yl)-N-(3,4-difluorobenzyl)piperidine-4-carboxamide] | > 100 µM
Nc1n[nH]c(N2CCC(C(=O)NCc3ccccc3F)CC2)n1 [Example 51, 1-(3-amino-1H-1,2,4-triazol-5-yl)-N-(2-fluorobenzyl)piperidine-4-carboxamide] | > 100 µM
CC1(C(=O)NCc2ccc(Cl)cc2)CCN(c2nc(N)n[nH]2)CC1 [Example 235, 1-(3-amino-1H-1,2,4-triazol-5-yl)-N-(4-chlorobenzyl)-4-methylpiperidine-4-carboxamide] | > 100 µM
Cc1oc(C(F)(F)F)cc1CNC(=O)C1CCN(c2nc(N)n[nH]2)CC1 [Example 202, 1-(3-amino-1H-1,2,4-triazol-5-yl)-N-((2-methyl-5-(trifluoromethyl)furan-3-yl)methyl)piperidine-4-carboxamide] | > 100 µM
CC(Oc1ccccc1F)C(=O)N1CCN(c2nc(N)n[nH]2)CC1 (stereo not drawn) [Example 44, 1-(4-(3-amino-1H-1,2,4-triazol-5-yl)piperazin-1-yl)-2-(2-fluorophenoxy)propan-1-one] | > 100 µM
CC(CNC1CCN(c2nc(N)n[nH]2)CC1)c1ccc(Cl)cc1 (stereo not drawn) [Example 147, 1-(3-amino-1H-1,2,4-triazol-5-yl)-N-(2-(4-chlorophenyl)propyl)piperidin-4-aminedihydrochloride] | 10 to 100 µM

Compound | IC50
Nc1n[nH]c(N2CCC(C(=O)NCc3ccc(F)cc3C(F)(F)F)CC2)n1 [Example 50, 1-(3-amino-1H-1,2,4-triazol-5-yl)-N-(4-fluoro-2-(trifluoromethyl)benzyl)piperidine-4-carboxamide] | > 100 µM
CCC(Oc1ccc(Br)cc1)C(=O)N1CCN(c2nc(N)n[nH]2)CC1 (stereo not drawn) [Example 5, 1-[4-(3-amino-1H-1,2,4-triazol-5-yl)piperazin-1-yl]-2-(4-bromophenoxy)butan-1-one] | > 100 µM
Nc1n[nH]c(N2CCC(C(=O)NCc3ccc(Cl)cc3)CC2)n1 [Example 52, 1-(3-amino-1H-1,2,4-triazol-5-yl)-N-(4-chlorobenzyl)piperidine-4-carboxamide] | > 100 µM
CC(Cc1ccc(Cl)cc1)NC1CCN(c2nc(N)n[nH]2)CC1 (stereo not drawn) [Example 151, 1-(3-amino-1H-1,2,4-triazol-5-yl)-N-(1-(4-chlorophenyl)propan-2-yl)piperidin-4-amine dihydrochloride] | 1 to 10 µM
Nc1n[nH]c(N2CCC(c3nc(-c4ccc5c(c4)OCO5)no3)CC2)n1 [Example 41, 5-(4-(3-(benzo[d][1,3]dioxol-5-yl)-1,2,4-oxadiazol-5-yl)piperidin-1-yl)-1H-1,2,4-triazol-3-amine] | > 100 µM
C[C@H](Oc1ccc(Br)cc1)C(=O)N1CCN(c2nc(N)n[nH]2)CC1 [Example 7, (S)-1-(4-(3-amino-1H-1,2,4-triazol-5-yl)piperazin-1-yl)-2-(4-bromophenoxy)-propan-1-one] | > 100 µM
Nc1n[nH]c(N2CCN(C(=O)CC(N)c3cccc(F)c3)CC2)n1 (stereo not drawn) [Example 233, 3-amino-1-(4-(3-amino-1H-1,2,4-triazol-5-yl)piperazin-1-yl)-3-(3-fluorophenyl)propan-1-one] | > 100 µM
CN(CCc1ccc(Br)cc1)C1CCN(c2nc(N)n(C)n2)CC1 [Example 166, 1-(5-amino-1-methyl-1H-1,2,4-triazol-3-yl)-N-(4-bromophenethyl)-N-methylpiperidin-4-amine] | > 100 µM
CN(Cc1nc2ccccc2[nH]1)C1CCN(c2nc(N)n[nH]2)CC1 [Example 136, N-((1H-benzo[d]imidazol-2-yl)methyl)-1-(3-amino-1H-1,2,4-triazol-5-yl)-N-methylpiperidin-4-aminetrihydrochloride] | > 100 µM
Nc1n[nH]c(N2CCC(CNC(=O)c3ccc(F)c(F)c3)CC2)n1 [Example 220, N-((1-(3-amino-1H-1,2,4-triazol-5-yl)piperidin-4-yl)methyl)-3,4-difluorobenzamide] | > 100 µM
Nc1n[nH]c(N2CCC(NS(=O)(=O)Cc3cccc(C(F)(F)F)c3)CC2)n1 [Example 192, N-(1-(3-amino-1H-1,2,4-triazol-5-yl)piperidin-4-yl)-1-(3-(trifluoromethyl)phenyl)methanesulfonamide] | 1 to 10 µM
Cc1ccc(C)c(OC(C)C(=O)N2CCN(c3nc(N)n[nH]3)CC2)c1 (stereo not drawn) [Example 34, 1-(4-(3-amino-1H-1,2,4-triazol-5-yl)piperazin-1-yl)-2-(2,5-dimethylphenoxy)propan-1-one] | > 100 µM
Nc1n[nH]c(N2CCN(CCO)CC2)n1 [Example 77, 2-(4-(3-amino-1H-1,2,4-triazol-5-yl)piperazin-1-yl)ethanol] | > 100 µM
Cc1ccccc1CN(CCc1ccc(Cl)cc1)C1CCN(c2nc(N)n[nH]2)CC1 [Example 125, 1-(3-amino-1H-1,2,4-triazol-5-yl)-N-(4-chlorophenethyl)-N-(2-methylbenzyl)piperidin-4-amine] | < 0.1 µM
Nc1n[nH]c(N2CCC(NS(=O)(=O)Cc3cc(Cl)cc(Cl)c3)CC2)n1 [Example 58, N-(1-(3-amino-1H-1,2,4-triazol-5-yl)piperidin-4-yl)-1-(3,5-dichlorophenyl)methanesulfonamide] | 1 to 10 µM
Nc1n[nH]c(N2CCCN(CCOc3ccc(Br)cc3)CC2)n1 [Example 28, 5-{4-[2-(4-bromophenoxy)ethyl]-[1,4]-diazepan-1-yl}-1H-1,2,4-triazol-3-amine] | > 100 µM
CC(COc1ccc(Br)cc1)N1CCN(c2nc(N)n[nH]2)CC1 (stereo not drawn) [Example 20-2, 5-(4-(1-(4-bromophenoxy)propan-2-yl)piperazin-1-yl)-1H-1,2,4-triazol-3-amine] | 10 to 100 µM
Nc1n[nH]c(N2CCC(N(CCc3ccc(Cl)cc3)Cc3ccc(-c4ccn[nH]4)cc3)CC2)n1 [Example 115, N-(4-(1H-pyrazol-5-yl)benzyl)-1-(3-amino-1H-1,2,4-triazol-5-yl)-N-(4-chlorophenethyl) piperidin-4-amine dihydrochloride] | < 0.1 µM
C[C@H](CN1CCN(c2nc(N)n[nH]2)CC1)Oc1ccc(Br)cc1 [Example 90, (R)-5-(4-(2-(4-bromophenoxy)propyl)piperazin-1-yl)-1H-1,2,4-triazol-3-amine] | 0.1 to 1 µM
